Four compounds from patent publication US5356887A, “Pharmaceutical compositions containing insoluble calcium salts of amino-hydroxybutylidene bisphoshonic acids” (Merck & Co., Inc., priority 1993, dated 1994) can be followed below.

Data set [1] has as its system immobilized femur. The note with it: days -2 and -1, 10 days after surgery, n = 5. The method, then: Immobilization was produced by unilateral hind limb sciatic neurectomy. Ten days after surgery the rats were sacrificed, hind limbs removed, and the femora ashed at 700° C. for 24 hours. Ash weight was determined and the difference between the ash weight of the intact limb and immobilized limb calculated and expressed as the mg difference. Per cent difference was calculated as the % difference in ash weight between the intact and immobilized limb.
(§1) mg Diff = difference in ash weight between the intact femur and the
(§2) se = standard error of the mean
(§3) % Bone Loss = ash weight difference between the intact femur and the
(§4) immobilized femur divided by the ash weight of the intact femur

The next data set concerns rat paw. In words: Local Irritation Study/Rat Paw Licking Response Test. The note with it: suspension vs solution of the (ABP)Na salt.
Data set [2] has as its system immobilized femur. Conditions: days -4 and -3, 10 days after surgery, n = 5. As for the experimental part:
On day 0 all rats underwent surgery whereby the sciatic nerve of the right hind limb was severed. Ten days following immobilization surgery, the rats were sacrificed and hind limbs removed. The femora were defleshed, maximum femoral length of both femora measured and then placed in a muffle furnace at 700° C. for 24 hours.
as §1, §2, §3, §4

The conditions of data set [3]: in vivo.
The mark [4] stands for this setting: 0.0001 mg P/kg s.c., monocalcium salt.
Setting [5] is: 0.001 mg P/kg s.c., monocalcium salt.
Setting [6] is: 0.01 mg P/kg s.c., monocalcium salt.
[7] abbreviates: 0.1 mg P/kg s.c., monocalcium salt.
Where [8] appears, read: 2 × 0.1 mg P/kg s.c., monocalcium salt.
Where [9] appears, read: 2 × 1.0 mg P/kg s.c., monocalcium salt.
Setting [10] is: 0.0001 mg P/kg s.c., monosodium salt.
Setting [11] is: 0.001 mg P/kg s.c., monosodium salt.
Setting [12] is: 0.01 mg P/kg s.c., monosodium salt.
Setting [13] is: 0.1 mg P/kg s.c., monosodium salt.
Setting [14] is: 2 × 0.1 mg P/kg s.c., monosodium salt.

Counter-ions that a name gives are not always drawn. Like-named read-outs stand apart in the source and are kept apart here.

As to `NCCCC(O)(P(=O)(O)O)P(=O)(O)O` [(ABP)2 Ca, di[(4-amino-1-hydroxybutylidene)-1,1-bisphosphonic acid] monocalcium salt], the “% Bone Loss” value in the data set on immobilized femur [1] (setting [4]) came to 8.93%; with immobilized femur [1] (setting [5]), 6.58%; with immobilized femur [1] (setting [6]), 3.64%; with immobilized femur [1] (setting [7]) it was 4.14%; in the data set on immobilized femur [2] (setting [8]), 1.93%; with immobilized femur [2] (setting [9]), 2.09%. Also, the “mg Diff (difference in ash weight between the intact femur and the immobilized femur)” value in the data set with immobilized femur [1] (setting [4]) amounted to 29.64 mg; with immobilized femur [1] (setting [5]), 22.00 mg; with immobilized femur [1] (setting [6]), 12.62 mg; with immobilized femur [1] (setting [7]) it was 11.32 mg; with immobilized femur [2] (setting [8]), 6.50 mg; in the data set on immobilized femur [2] (setting [9]), 7.38 mg. The “Paw licking responses and tolerability, in words” value with rat paw was “induced a lower number of responses and were better tolerated than the solution of the (ABP)Na salt”.
With `NCCCC(O)(P(=O)(O)O)P(=O)(O)O` [(ABP)Na, (4-amino-1-hydroxybutylidene)-1,1-bisphosphonic acid monosodium salt, reference compound], the “Level of the drug in the bloodstream” value in data set [3] (iv) is “high level”. For the same compound, the “% Bone Loss” value in the data set with immobilized femur [1] (setting [10]) is reported as 9.93%; with immobilized femur [1] (setting [11]) it was 5.95%; in the data set with immobilized femur [1] (setting [12]), 4.90%; in the data set on immobilized femur [1] (setting [13]), 4.15%; in the data set with immobilized femur [2] (setting [14]) it was 4.68%. Moreover, the “mg Diff (difference in ash weight between the intact femur and the immobilized femur)” value with immobilized femur [1] (setting [10]) turned out to be 31.14 mg; in the data set with immobilized femur [1] (setting [11]), 21.32 mg; in the data set on immobilized femur [1] (setting [12]), 18.72 mg; in the data set with immobilized femur [1] (setting [13]), 14.10 mg; with immobilized femur [2] (setting [14]), 14.62 mg.
Consider `NCCCC(O)(P(=O)(O)O)P(=O)(O)O` [(ABP)3 Ca4, tri[(4-amino-1-hydroxybutylidene)-1,1-bisphosphonic acid] tetracalcium salt], for which, in the data set with rat paw, the “Paw licking responses and tolerability, in words” value was “induced a lower number of responses and were better tolerated than the solution of the (ABP)Na salt”. Moreover, in the data set on immobilized femur [2] (2 × 0.1 mg P/kg s.c.), the “% Bone Loss” value is recorded as 2.48%; the “mg Diff (difference in ash weight between the intact femur and the immobilized femur)” value is on record as 7.68 mg. Further, in the data set with immobilized femur [2] (2 × 1.0 mg P/kg s.c.), the “% Bone Loss” value was found to be 1.22%; the “mg Diff (difference in ash weight between the intact femur and the immobilized femur)” value stood at 3.94 mg.
Regarding `NCCCC(O)(P(=O)(O)O)P(=O)(O)O` [(ABP)Ca, [(4-amino-1-hydroxybutylidene)-1,1-bisphosphonic acid] monocalcium salt], the “Systemic release of ABP” value in data set [3] is “slow systemic release”. Also, the “Level of the drug in the bloodstream” value in data set [3] (sc) is on record as “never very high”. Also, the “% Bone Loss” value in the data set on immobilized femur [1] (setting [4]) turned out to be 9.34%; in the data set on immobilized femur [1] (setting [5]) it was 7.69%; with immobilized femur [1] (setting [6]) it was 5.01%; in the data set on immobilized femur [1] (setting [7]), 4.12%. Also, the “mg Diff (difference in ash weight between the intact femur and the immobilized femur)” value was 28.70 mg with immobilized femur [1] (setting [4]), 25.98 mg in the data set on immobilized femur [1] (setting [5]), 16.72 mg in the data set with immobilized femur [1] (setting [6]) and 13.24 mg in the data set with immobilized femur [1] (setting [7]).
